We go through six compounds from patent publication US20200376068A1, “PROTECTION OF NORMAL TISSUE IN CANCER TREATMENT” (THOMAS JEFFERSON UNIVERSITY, priority 2017, published 2020).

Data set [1] has as its system p53. Nature of the data set: Immunoblot of total and phosphorylated p53 in irradiated HCT116 cells. The data set is classed as cell-based, human. As to conditions: 5 Gy radiation, 500 μM. Background: In western blotting, separated proteins are transferred to a membrane and probed.
The test system of data set [2] is p53-Mdm2 interaction. The data set is described as follows: Immunoprecipitation of p53-Mdm2 in irradiated HCT116 cells. The class given is cell-based, human. As to conditions: 5 Gy radiation, IP and Western Blot. As for the experimental part:
McCoy's 5A and Dulbecco's Modified Eagle Medium (DMEM) containing 10% fetal bovine serum and other reagents for cell culture were obtained from Life Technologies (Rockville, Md.). 8-Bromoguanosine 3′, 5′-cyclic monophosphate (8-Br-cGMP), a cell-permeant analog of cGMP, was obtained from Sigma (St. Louis, Mo.) and 500 μM was used in all experiments (18,20,25,26,34).
Mouse IgG (5 μg, cat. #10400C, Invitrogen) and rabbit IgG (5 μg, cat. #10400C, Invitrogen) were isotype controls for immunoprecipitation.

Data set [3] relates to HCT116 human colon carcinoma cells (parental). The data set is described as follows: Anaphase bridge index and aneuploidy after 5 Gy. The data set is classed as cell-based. As to conditions: pretreatment 500 μM. The protocol: (§1) Cells preconditioned with 8-Br-cGMP, or control cells, were irradiated (5 Gy), then seeded on coverslips in 24-well plates (5×10^4 cells per well). ABI and aneuploidy were quantified 2 d after irradiation.
(§2) ABI: Cells were fixed in 4% PFA and stained with DAPI. Anaphase cells were analyzed and abnormal anaphase cells were calculated under a fluorescence microscope. More than 200 anaphase cells were analyzed in each treatment group in each independent experiment. Any abnormal anaphase cells with anaphase bridges or anaphase lag showing extended chromosome bridging between two spindle poles were enumerated and the ABI was calculated as percentage of abnormal anaphase cells over total anaphase cells.
(§3) Aneuploidy: Cells were fixed in 4% PFA and stained with DAPI, and immunofluorescence stains were performed using α/β-tubulin-specific antibodies and […] γ-tubulin antibodies, detected with Alexa Fluor® 555 or Alexa Fluor® 488 labeled secondary antibodies from Invitrogen. […] Abnormal anaphase chromatids were counted if cells contained more than two centrosomes or two centrosomes located in the same direction to the spindle midzone separated from kinetochores at the poles.

Data set [4] relates to HCT116 p53-null cells. The data set is described as follows: Anaphase bridge index and aneuploidy after 5 Gy. As to conditions: pretreatment 500 μM. The data set is classed as cell-based, human. The protocol: as §1, §2, §3
Data set [5] deals with HCT116 cells (parental). Nature of the data set: Colony formation assay after irradiation. The data set is classed as cell-based, human. The following applies: parental HCT116, 0-4 Gy, 500 μM for 7 d before and after irradiation, vs PBS. As for the experimental part: (§4) HCT116 and HCT116 p53-null cells were plated in 6-well dishes at 1×10^4 cells/well followed by treatment for 7 d with vehicle or cell permeable cGMP (8-Br-cGMP, 500 μM). Media containing different treatments were changed every other day. After exposure to radiation (0-4 Gy) cells were trypsinized and plated in 6-well dishes at different densities depending on the potency of the treatments (10^4 cells/well for HCT116 exposed at 0, 1 and 2 Gy; 4×10^4 cells/well for HCT116 p53-null exposed at 0, 1 and 2 Gy; 50×10^4 cells/well for HCT116 exposed at 3 and 4 Gy; 200×10^4 cells/well for HCT116 p53-null exposed at 3 and 4 Gy). […] The number of colonies, defined as >50 cells/colony were counted, and the surviving fraction was calculated as the ratio of the number of colonies in the treated sample to the number of colonies produced by cells that were not irradiated. […]
(§5) Statistical significance was determined by unpaired two-tailed Student's t test unless otherwise indicated. […] Survival and disease-free survival were analyzed by Kaplan-Meier analysis. Body weight was analyzed using a frailty model combining a segmented linear longitudinal model of body weight, a log-normal model for survival time, and a log-normal model for random break point for body weight (inflection point). […] Colony formation was analyzed by a pairwise comparison in four treatments with isotherm slopes by linear regression.

For data set [6], the system named is HCT116 p53-null cells. The data set is described as follows: Colony formation assay after irradiation. The data set is classed as cell-based, human. The following applies: 0-4 Gy, 500 μM, vs PBS. The protocol:
as §4, §5

Data set [7] deals with intestinal stem cells (ISCs). Nature of the data set: Quantification of crypt Lgr5+GFP+ and Bmi1+ stem cells in Gucy2c−/− mice. The data set is classed as in vivo, mouse. As for the experimental part: (§6) Gucyc^−/− (Glucy2^ctm1Gar[63]), Lgr5-EGFP-CreERT2 (B6.129P2-Lgr5^tm1(cre/ERT2)Cle/J; Jax, Bar Harbor, Me., #008875) and Rosa-STOP^fl-LacZ (B6.129S4-Gt(ROSA)26Sor^tm1Sor/J; Jax #003474) transgenic mouse lines were interbred to generate offspring with the desired alleles. All mice were co-housed and Gucy2c^+/+ (wild type) littermates with the appropriate alleles were used as controls. Tissues were harvested from adult mice (12-16 wk of age). Cre was induced with a single 200 μL dose of tamoxifen (Sigma; Billerica, Mass.; T5648) in sunflower oil at 10 mg/ml. Tauroursodeoxycholic Acid (TUDCA, Millipore 580549) treatments were administered daily for 3 d at 100 mg/kg/day intraperitoneally. Mice were exposed to a single 10 Gy dose of whole-body γ-irradiation with a PanTak, 310 kVe x-ray machine and tissues were harvested at noted time points after irradiation. In some experiments, mice were gavaged daily for 7 d with 100 μL of 20 mM 8-cpt-cGMP. Each point in a graph (n) represents one mouse unless otherwise noted. All animal protocols were approved by the Thomas Jefferson University Institutional
Intestines were harvested from mice, fixed in formalin, and embedded in paraffin as previously described. Sections (4 μM) were cut then rehydrated in a sequential ethanol-to-water bath and stained with hematoxylin and eosin or antigen-specific primary and secondary antibodies. Primary antibodies for immunofluorescence included: anti-GFP, anti-Bmi1, and anti-GRP78 (Abcam; Cambridge, M A); anti-phospho VASP Ser239 (Sigma; Billerica, Mass.); and anti-GUCY2C (prepared and validated in-house). Secondary antibodies were from Life Technologies (Waltham, Mass.) and specific to the primary hosts. Tyramide signal amplification was used to detect GUCY2C; secondary antibodies conjugated to horseradish peroxidase were from Jackson immunoresearch Laboratories (cat #115-035-206 and #111-036-046, 1:1000 dilution), and fluorescein-conjugated tyramine was prepared from tyramine HCl (cat #T2879, Sigma) and NHS-fluorescein (cat #46410, Thermo Scientific) as described. For visualization of Rosa-LacZ lineage tracing, tamoxifen-induced recombinant Cre intestines were prepared as described previously. At least 4 intestinal circumference sections were evaluated per mouse.

Data set [8] deals with Grp78 (BiP). Nature of the data set: Crypt ER stress, Grp78 (BiP) expression. The data set is classed as in vivo, mouse. The following applies: Gucy2c−/− mice. The protocol:
as §6
Intestines were harvested from mice, fixed in formalin, and embedded in paraffin as previously described. […] At least 4 intestinal circumference sections were evaluated per mouse.

Data set [9] has as its system patients with irritable bowel syndrome. The following applies: oral; cited from earlier work.
The conditions of data set [10]: cited from earlier work.
Data set [11] concerns intestinal crypts. Nature of the data set: Ex vivo enteroid formation from crypts. The data set is classed as cell-based, mouse. The following applies: crypts of Gucy2c+/+ mice, oral linaclotide. As for the experimental part: Crypt isolation for subsequent analyses (enteroid assay, florescence-activated cell sorting (FACS), immunoblot) was performed using a variation of the chelation dissociation method. Briefly, intestines were harvested, villi were gently scraped off for the small intestine, and tissues were minced and incubated in a 10 mM EDTA/Ca-free, Mg-free Hank's Balanced Salt Solution (HBSS) on ice for a total of 40 min, Throughout this time, solutions were intermittently shaken by hand at the speed of two shakes/second, supernatant was disposed a total of six times, and fresh EDTA/HBSS was added after each disposal. Tissue was incubated undisturbed for 30 min on ice followed by vigorous pipetting with a 10 mL pipet to dissociate the remaining crypts. Crypts were filtered through a […] strainer and pelleted. For enteroid culture, the same number of crypts for each genotype (ranging from 300-1500 crypts/well) were resuspended in a matrigel droplet (BD, 354230), pipetted briefly with a 1000 μL micropipette, plated in 30 μL, and overlaid with 350 μL of intesticult media (Stem Cell Technologies, Vancouver. Canada: 06005). For FACS, crypts were incubated in 0.25% trypsin (Thermo Scientific, Philadelphia, Pa.; 15050065) at 37° C. until a single cell suspension was obtained (not more than 10 min). Cells were then filtered a second time using a 40 μM strainer and kept in EDTA solution for sorting.

Data set [12] concerns irradiated intestinal tissue. The following applies: mice lacking genes encoding GCC or uroguanylin; cited from earlier work.
The target of data set [13] is guanylate cyclase (ST receptors) (Homo sapiens, UniProt P25092). The following applies: relative to native ST; cited from earlier work.

Bridge positions count the residues as written; N and C are the ends. Ends that are not written are not given here. Peptide text beside a SMILES is read from it.

Chain of guanylate cyclase (ST receptors) (P25092 24-1073): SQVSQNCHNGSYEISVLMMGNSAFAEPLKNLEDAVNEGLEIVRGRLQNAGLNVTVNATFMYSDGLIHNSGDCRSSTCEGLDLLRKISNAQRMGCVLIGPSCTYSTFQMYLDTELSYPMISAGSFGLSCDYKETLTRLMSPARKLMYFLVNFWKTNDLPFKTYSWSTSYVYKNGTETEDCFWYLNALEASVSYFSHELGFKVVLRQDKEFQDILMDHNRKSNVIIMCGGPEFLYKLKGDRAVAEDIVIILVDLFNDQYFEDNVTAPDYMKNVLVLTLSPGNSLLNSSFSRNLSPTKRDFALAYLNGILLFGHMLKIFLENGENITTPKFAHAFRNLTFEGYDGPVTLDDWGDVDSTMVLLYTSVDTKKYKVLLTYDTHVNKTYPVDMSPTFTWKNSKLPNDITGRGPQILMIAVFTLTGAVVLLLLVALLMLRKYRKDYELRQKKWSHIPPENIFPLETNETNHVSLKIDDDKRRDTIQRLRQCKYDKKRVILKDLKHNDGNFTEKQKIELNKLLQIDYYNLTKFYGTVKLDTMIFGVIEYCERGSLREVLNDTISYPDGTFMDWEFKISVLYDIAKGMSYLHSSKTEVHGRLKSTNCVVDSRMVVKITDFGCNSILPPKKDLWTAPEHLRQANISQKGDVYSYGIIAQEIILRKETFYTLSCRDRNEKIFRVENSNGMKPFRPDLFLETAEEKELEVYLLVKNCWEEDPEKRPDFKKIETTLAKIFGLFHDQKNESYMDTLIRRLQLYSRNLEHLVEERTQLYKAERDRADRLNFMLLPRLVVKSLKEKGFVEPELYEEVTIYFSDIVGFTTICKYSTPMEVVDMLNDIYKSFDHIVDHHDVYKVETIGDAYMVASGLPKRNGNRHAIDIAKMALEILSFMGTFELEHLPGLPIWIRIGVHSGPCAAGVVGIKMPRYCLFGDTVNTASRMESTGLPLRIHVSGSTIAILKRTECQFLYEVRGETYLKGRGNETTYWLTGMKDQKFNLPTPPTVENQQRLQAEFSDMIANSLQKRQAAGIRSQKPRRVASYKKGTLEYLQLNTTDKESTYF

As to `Nc1nc2c(nc(Br)n2[C@@H]2O[C@@H]3COP(=O)(O)O[C@H]3[C@H]2O)c(=O)[nH]1` [8-Br-cGMP, 8-Bromoguanosine 3′, 5′-cyclic monophosphate], in data set [1], the “phosphorylated p53” value is on record as “increased” and the “total p53” value was “increased”. Besides, in data set [2], the p53-Mdm2 interaction result is on record as “disrupting” and the p53 activation entry is on record as “increased”. In data set [3], the “chromosomal instability quantified by anaphase bridge index” value is “reduced” and the “chromosomal instability quantified by centrosome counts (aneuploidy)” value is listed as “reduced”. Moreover, in [4], the “chromosomal instability quantified by anaphase bridge index” value is listed as “insensitive” and the “chromosomal instability quantified by centrosome counts (aneuploidy)” value was “insensitive”. Further, the “cytogenetic toxicity induced by increasing doses of radiation, quantified by colony formation” value in [5] is “reduced”. The “cytogenetic toxicity induced by increasing doses of radiation, quantified by colony formation” value in data set [6] was “not significant”. Also, in data set [7], the “Bmi1+ cells in crypts” value was “comparable to those in Gucy2c^+/+ mice” and the “Lgr5+GFP+ cells in crypts” value was “comparable to those in Gucy2c^+/+ mice”. In [8], the “BiP (Grp78) expression in crypts” value is “mimicked”.

As for `CC(C)C[C@H](NC(=O)[C@@H]1CSSC[C@@H]2NC(=O)[C@H](CC(C)C)NC(=O)[C@H](CCC(=O)O)NC(=O)[C@@H](NC(=O)[C@H](CCC(=O)O)NC(=O)[C@H](CC(=O)O)NC(=O)[C@@H](N)CC(N)=O)CSSC[C@H](NC(=O)[C@H](C)NC(=O)[C@H](C(C)C)NC(=O)[C@H](CC(N)=O)NC(=O)[C@H](C(C)C)NC2=O)C(=O)N[C@@H]([C@@H](C)O)C(=O)NCC(=O)N1)C(=O)O` [plecanatide] (H-NDECELCVNVACTGCL-OH; disulfide 4-12, 7-15), in [9], the abdominal pain entry is “relieve” and the constipation entry is “improve”. In data set [10], the “oral bioavailability or bioactivity outside the GI tract” value is “negligible”.

On to `C[C@H](CCC(=O)NCCS(=O)(=O)O)[C@H]1CC[C@H]2[C@@H]3[C@@H](O)C[C@@H]4C[C@H](O)CC[C@]4(C)[C@H]3CC[C@]12C` [TUDCA, tauroursodeoxycholic acid], for which, in data set [7], the “Bmi1+ cells in crypts” value is “restored” and the “Lgr5+GFP+ cells in crypts” value is recorded as “restored”. Further, the “BiP (Grp78) expression in crypts” value in [8] was “restored normal BiP expression”.

In the case of `C[C@@H]1NC(=O)[C@@H]2CCCN2C(=O)[C@H](CC(N)=O)NC(=O)[C@@H]2CSSC[C@H](N)C(=O)N[C@H]3CSSC[C@H](NC1=O)C(=O)N[C@@H]([C@@H](C)O)C(=O)NCC(=O)N[C@H](C(=O)N[C@@H](Cc1ccc(O)cc1)C(=O)O)CSSC[C@H](NC(=O)[C@H](Cc1ccc(O)cc1)NC(=O)[C@H](CCC(=O)O)NC3=O)C(=O)N2` [linaclotide] (H-CCEYCCNPACTGCY-OH; disulfide 1-6, 2-10, 5-13), the “efficiency of enteroid formation” value in [11] is “amplified”. Further, in data set [9], the abdominal pain result is recorded as “relieve” and the constipation result was “improve”. The “oral bioavailability or bioactivity outside the GI tract” value in data set [10] is recorded as “negligible”.

With cGMP, the “level of apoptosis in irradiated intestinal tissue” value in [12] is recorded as “ameliorated”.

In the case of “Guanylin: 15 amino acid peptide from mammalian intestine, about 50% sequence homology to ST; endogenous GCC agonist (PGTCEICAYAACTGC; ends and bridges not checked; cysteine pairing not given here; UniProt Q02747 101-115, looked up)”, the “activates guanylate cyclase at a level less than native ST” value in data set [13] is 10- to 100 fold.
